Source: publication doi:10.1101/2024.06.13.594677v1 (biorxiv, 2024)
Read-outs that look alike come from different tables or passages of the source.

Tests used:
[1] = molecular target: T1, rat 5-HT2A receptor (Rattus norvegicus, UniProt P14842); assay: cytosolic Ca2+; format: cell-based; settings: Gq/Ca2+ agonism; room temperature; HBSS with Ca2+
[2] = molecular target: T2, human 5-HT2A receptor (Homo sapiens, UniProt P28223); parameters: species or system SH-SY5Y expressing human 5-HT2A; settings: agonist
[3] = molecular target: T2, human 5-HT2A receptor; parameters: species or system SH-SY5Y expressing human 5-HT2A; settings: agonist; remark: listed apart in the source
[4] = molecular target: T1, rat 5-HT2A receptor; parameters: species or system C6 glioma (endogenous rat 5-HT2A); settings: relative to 10 uM 5-HT; agonist
[5] = molecular target: T2, human 5-HT2A receptor; parameters: species or system SH-SY5Y expressing human 5-HT2A; settings: agonist; remark: listed apart in the source
[6] = molecular target: T1, rat 5-HT2A receptor
[7] = molecular target: T2, human 5-HT2A receptor; format: cell-based; settings: Gq/IP1 agonism; LiCl; […] °C, […] h
[8] = molecular target: T2, human 5-HT2A receptor; format: cell-based; settings: beta-arrestin2 agonism; GRK2 and GRK3 co-expressed; DPBS with Ca2+; […] min
[9] = molecular target: T2, human 5-HT2A receptor; format: cell-based; settings: Gq/Ca2+ agonism; room temperature; HBSS with Ca2+

T1 sequence (P14842 whole entry): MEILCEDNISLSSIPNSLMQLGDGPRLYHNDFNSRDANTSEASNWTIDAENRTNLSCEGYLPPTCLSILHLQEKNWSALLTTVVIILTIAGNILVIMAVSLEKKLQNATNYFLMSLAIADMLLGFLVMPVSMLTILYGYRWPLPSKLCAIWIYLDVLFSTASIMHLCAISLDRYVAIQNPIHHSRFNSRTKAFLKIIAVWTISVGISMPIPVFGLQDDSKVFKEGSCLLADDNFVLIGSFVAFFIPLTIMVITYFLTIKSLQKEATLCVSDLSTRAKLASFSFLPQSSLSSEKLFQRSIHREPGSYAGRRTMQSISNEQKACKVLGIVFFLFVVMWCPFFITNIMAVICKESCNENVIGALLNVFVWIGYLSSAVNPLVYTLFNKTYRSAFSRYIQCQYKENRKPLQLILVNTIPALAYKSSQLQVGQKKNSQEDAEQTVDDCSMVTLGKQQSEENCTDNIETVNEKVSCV
T2 sequence (P28223 whole entry): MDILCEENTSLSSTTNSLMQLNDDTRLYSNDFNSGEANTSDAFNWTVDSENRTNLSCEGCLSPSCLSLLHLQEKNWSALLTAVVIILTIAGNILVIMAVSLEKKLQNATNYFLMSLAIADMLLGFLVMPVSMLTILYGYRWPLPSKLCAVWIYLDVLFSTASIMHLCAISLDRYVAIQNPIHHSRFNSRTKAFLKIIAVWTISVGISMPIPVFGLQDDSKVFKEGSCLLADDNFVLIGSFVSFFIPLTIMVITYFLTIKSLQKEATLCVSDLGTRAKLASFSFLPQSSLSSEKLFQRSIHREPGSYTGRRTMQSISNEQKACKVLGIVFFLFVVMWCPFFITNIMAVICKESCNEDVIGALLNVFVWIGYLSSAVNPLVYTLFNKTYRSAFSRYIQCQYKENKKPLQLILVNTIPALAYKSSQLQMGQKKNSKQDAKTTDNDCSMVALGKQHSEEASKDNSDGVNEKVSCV

COc1cc(CC(C)N)c(OC)cc1I (stereo not shown) [DOI, 2,5-dimethoxy-4-iodoamphetamine]
pEC50 [1]: 7.14 ± 0.16 | β-arrestin2 Emax [2]: 0.73 ± 0.027 | IP1 Emax [3]: 1.12 ± 0.025 | Ca2+ Emax (C6) [4]: 0.32 ± 0.017% | Ca2+ Emax [5]: 0.49 ± 0.019

COc1ccc2[nH]cc(CCN(C)C)c2c1 [5-MeO-DMT, 5-methoxy-N,N-dimethyltryptamine]
EC50 [6]: 0.24 µM | β-arrestin2 Emax [2]: 0.70 ± 0.020 | IP1 Emax [3]: 0.93 ± 0.027 | Ca2+ Emax (C6) [4]: 0.36 ± 0.021% | Ca2+ Emax [5]: 0.73 ± 0.033

CCN(CC)C(=O)[C@@H]1C=C2c3cccc4[nH]cc(c34)C[C@H]2N(C)C1 [LSD]
IP1 Emax [3]: 0.78 ± 0.039 | Ca2+ Emax (C6) [4]: 0.19 ± 0.0092% | Ca2+ Emax [5]: 0.36 ± 0.027

COc1ccc2c3c([nH]c2c1)CCN(C)CC3 [TBG]
β-arrestin2 Emax [2]: 0.19 ± 0.026 | IP1 Emax [3]: 0.35 ± 0.064 | Ca2+ Emax [5]: 0.13 ± 0.033

CN(C)CCc1c[nH]c2cccc(O)c12 [psilocin]
pEC50 [1]: 7.15 ± 0.20 | β-arrestin2 Emax [2]: 0.28 ± 0.019 | IP1 Emax [3]: 0.80 ± 0.030 | Ca2+ Emax (C6) [4]: 0.12 ± 0.0079% | Ca2+ Emax [5]: 0.40 ± 0.019

COc1cc(CCNCc2ccccc2OC)c(OC)cc1Br [25B-NBOMe, 4-bromo-2,5-dimethoxy-N-(2-methoxybenzyl)phenethylamine]
pEC50 [7]: 8.95 ± 0.28 | pEC50 [8]: 8.20 ± 0.079 | pEC50 [1]: 8.10 ± 0.23 | pEC50 [9]: 7.84 ± 0.15

COc1cc(CCN)cc(OC)c1OC [Mescaline, 3,4,5-trimethoxyphenethylamine]
EC50 [6]: 0.295 µM | β-arrestin2 Emax [2]: 0.64 ± 0.059 | IP1 Emax [3]: 0.81 ± 0.050 | Ca2+ Emax (C6) [4]: 0.40 ± 0.025% | Ca2+ Emax [5]: 0.47 ± 0.031

COc1cc(CCNCc2ccccc2OC)c(OC)cc1Br [25B-NBOMe]
β-arrestin2 Emax [2]: 0.88 ± 0.017 | IP1 Emax [3]: 0.75 ± 0.040 | Ca2+ Emax (C6) [4]: 0.46 ± 0.027% | Ca2+ Emax [5]: 0.57 ± 0.021
